Measured values as given in US12144864B2, “Tubulysins and protein-tubulysin conjugates” (Regeneron Pharmaceuticals, Inc., priority 2018, dated 2024).
Like-named read-outs stand apart in the source and are kept apart here.

How the values were obtained:
C4-2 cells = assay: Cell-based killing assay of payloads (CellTiter-Glo), C4-2 cells; set-up: species or system human; details: 5-day incubation; for IC50: Homo sapiens, C4-2, 120 h, average ± SD where replicates; for C4-2 % Kill: at maximum concentration tested (100 − % viable cells)
Procedure: (§1) To test the ability of the disclosed tubulysin payloads to kill human cell lines, an in vitro cytotoxicity assay was performed. In vitro cytotoxicity of the disclosed payloads, as well as reference compounds, were evaluated using the CellTiter-Glo Assay Kit (Promega, Cat #G7573), in which the quantity of ATP present is used to determine the number of viable cells in culture. For the assay, C4-2, HEK293, or T47D cells were seeded at 4000 cells/well on Nunclon white 96-well plates in complete growth medium (DME high glucose:Ham's F12 at 4:1, 10% FBS, 100 units/ml Penicillin, 100 ug/ml streptomycin, 53 ug/ml glutatmine, 10 ug/ml insulin, 220 ng/ml biotin, 12.5 pg/ml T3, 12.5 ug/ml Adenine, 4 ug/ml transferrin for C42 cells; DME high glucose, 10% FBS, 100 units/ml Penicillin, 100 ug/ml streptomycin, 53 ug/ml glutatmine for HEK293; RPMI, 10% FBS, 100 units/ml Penicillin, 100 ug/ml streptomycin, 53 ug/ml glutatmine, 10 ug/ml insulin, 10 mM HEPEs, 200 nM Sodium Pyruvate for T47D cells) and grown overnight at 37° C. in 5% CO2. For cell viability curves, 1:3 serially diluted payloads were added to the cells at final concentrations ranging from 100 nM to […], including a no treatment control group, and were then incubated for 5 days. After the 5-day incubation, cells were incubated at room temperature with 100 μL of CellTiter-Glo reagents for 10 minutes. Relative luminescence units (RLU) were determined on a Victor plate reader (PerkinElmer). The IC50 values were determined from a four-parameter logistic equation over a 10-point response curve (GraphPad Prism). All IC50 values are expressed in molar (M) concentration. The percent cell killing (% kill) at the maximum concentration tested was estimated from the following formula (100−% viable cells). Averages±standard deviation (SD) are included where replicate experiments were performed.

HL60/MX2 cells = assay: Cytotoxicity in panel of MDR cell lines, HL60/MX2 (72 h and 144 h); assay type: cell-based, human; details: for IC50: Homo sapiens
Procedure: as §1
(§2) To further test the ability of the disclosed tubulysin payloads, a cytotoxicity assay was performed using a panel of multidrug resistant (MDR) cell lines. In vitro cytotoxicity of the disclosed payloads as well as reference compounds were similarly evaluated as described above except using HCT-15 cells, a colorectal carcinoma cell line; H69AR, a doxorubicin resistant MDR derivative of the small cell lung cancer carcinoma cell line NCI-H69; MES-SA/MX2, a mitoxantrone resistant MDR derivative of the uterine sarcoma cell line MES-SA; and HL60/MX2, a mitoxantrone resistant MDR derivative of the acute promyelocytic leukemia cell line HL60. In these assays, cytotoxicity was evaluated in normal growth media (RPMI, 10% FBS, 100 units/ml Penicillin, 100 ug/ml streptomycin, and 53 ug/ml glutatmine for HCT-15 and HL60/MX2; RPMI, 20% FBS, 100 units/ml Penicillin, 100 ug/ml streptomycin, and 53 ug/ml glutatmine for H69-AR; Waymouths's:McCoy's (1:1), 10% FBS, 100 units/ml Penicillin, 100 ug/ml streptomycin, and 53 ug/ml glutatmine for MES-SA/MX2) with 1000 cells per well following 72 h and 144 h incubation with payloads.

MES-SA/MX2 cells = assay: Cytotoxicity in panel of MDR cell lines, MES-SA/MX2 (72 h and 144 h); assay type: cell-based, human; details: for IC50: Homo sapiens
Procedure: as §1, §2

HCT-15 cells = assay: Cytotoxicity in panel of MDR cell lines, HCT-15 (72 h and 144 h); assay type: cell-based, human; details: for IC50: Homo sapiens
Procedure: as §1, §2

H69AR cells = assay: Cytotoxicity in panel of MDR cell lines, H69AR (72 h and 144 h); assay type: cell-based, human; details: for IC50: Homo sapiens
Procedure: as §1, §2

HCT15 cells = assay: cells; assay type: cell-based, human; details: HCT15 cells; for HCT-15 + verapamil % Kill / HCT-15 % Kill: maximum % cell killing
Procedure: as §1
In vitro cytotoxicity of the disclosed payloads as well as reference compounds were evaluated similarly as described above except using 1000 HCT15 cells, a colorectal carcinoma cell line, in growth medium (RPMI, 10% FBS, 100 units/ml Penicillin, 100 ug/ml streptomycin, 53 ug/ml glutatmine) with or without 5 ug/mL of Verapamil.

[1] = 72 h incubation, read-out: HL60/MX2 IC50 72 h
[2] = 144 h incubation, read-out: HL60/MX2 IC50 144 h
[3] = 72 h incubation, read-out: MES-SA/MX2 IC50 72 h
[4] = 144 h incubation, read-out: MES-SA/MX2 IC50 144 h
[5] = 72 h incubation, read-out: HCT-15 IC50 72 h
[6] = 144 h incubation, read-out: HCT-15 IC50 144 h
[7] = 72 h incubation, read-out: H69AR IC50 72 h
[8] = 144 h incubation, read-out: H69AR IC50 144 h
[9] = with 5 ug/mL Verapamil, read-out: HCT-15 + verapamil IC50
[10] = Homo sapiens, HCT-15, without Verapamil, read-out: HCT-15 IC50

| Structure (SMILES) | IC50 (C4-2 cells) | C4-2 % Kill (C4-2 cells) | HL60/MX2 % Kill 72 h (HL60/MX2 cells; 72 h incubation) | HL60/MX2 % Kill 144 h (HL60/MX2 cells; 144 h incubation) | IC50 (HL60/MX2 cells; [1]) | IC50 (HL60/MX2 cells; [2]) | MES-SA/MX2 % Kill 72 h (MES-SA/MX2 cells; 72 h incubation) | MES-SA/MX2 % Kill 144 h (MES-SA/MX2 cells; 144 h incubation) | IC50 (MES-SA/MX2 cells; [3]) | IC50 (MES-SA/MX2 cells; [4]) | HCT-15 % Kill 72 h (HCT-15 cells; 72 h incubation) | HCT-15 % Kill 144 h (HCT-15 cells; 144 h incubation) | IC50 (HCT-15 cells; [5]) | IC50 (HCT-15 cells; [6]) | H69AR % Kill 72 h (H69AR cells; 72 h incubation) | H69AR % Kill 144 h (H69AR cells; 144 h incubation) | IC50 (H69AR cells; [7]) | IC50 (H69AR cells; [8]) | HCT-15 + verapamil % Kill (HCT15 cells; with 5 ug/mL Verapamil) | IC50 (HCT15 cells; [9]) | further results |
| --- | --- | --- | --- | --- | --- | --- | --- | --- | --- | --- | --- | --- | --- | --- | --- | --- | --- | --- | --- | --- | --- |
| CCCCCCN(C(=O)[C@@H](NC(=O)[C@H]1CCCCN1C)[C@@H](C)CC)[C@H](C[C@@H](OC(C)=O)c1nc(C(=O)NC(Cc2ccc(F)c(N)c2)CC(C)(C)C(=O)O)cs1)C(C)C (stereo partly drawn) [IVu, 4-({2-[(1R,3R)-1-(Acetyloxy)-3-[(2S,3S)—N-hexyl-3-methyl-2-{[(2R)-1-methylpiperidin-2-yl]formamido}pentanamido]-4-methylpentyl]-1,3-thiazol-4-yl}formamido)-5-(3-amino-4-fluorophenyl)-2,2-dimethylpentanoic acid] | 114 pM | 93.9% | 98% | 99.9% | < 15 pM | < 15 pM | 98.8% | 100% | 535 pM | 1210 pM | 97.9% | 99.8% | 134 pM | 242 pM | 96.4% | 99% | 634 pM | 1040 pM |  |  |  |
| CC[C@H](C)[C@H](NC(=O)[C@H]1CCCCN1C)C(=O)N(CCCCc1cn(-c2ccccc2)nn1)[C@H](C[C@@H](OC(C)=O)c1nc(C(=O)N[C@@H](Cc2ccc(N)cc2)CC(C)(C)C(=O)O)cs1)C(C)C [IVp, (S)-4-(2-((1R,3R)-1-acetoxy-4-methyl-3-((2S,3S)-3-methyl-2-((R)-1-methylpiperidine-2-carboxamido)-N-(4-(1-phenyl-1H-1,2,3-triazol-4-yl)butyl)pentanamido)pentyl)thiazole-4-carboxamido)-5-(4-aminophenyl)-2,2-dimethylpentanoic acid] | 177 pM | 94.2% | 97.5% | 99.9% | 23.7 pM | < 15 pM | 98.8% | 99.9% | 792 pM | 1660 pM | 97.6% | 99.7% | 181 pM | 231 pM | 96.3% | 99.2% | 644 pM | 1120 pM | 97.6% | 86.4 pM | HCT-15 % Kill (HCT15 cells; without Verapamil): 98.7%; IC50 (HCT15 cells; [10]): 239 pM |
| CC[C@H](C)[C@H](NC(=O)[C@H]1CCCCN1C)C(=O)N(CCCCc1cn(Cc2ccccc2)nn1)[C@H](C[C@@H](OC(C)=O)c1nc(C(=O)N[C@@H](Cc2ccc(N)cc2)CC(C)(C)C(=O)O)cs1)C(C)C [IVo, (S)-4-(2-((1R,3R)-1-Acetoxy-3-((2S,3S)—N-(4-(1-benzyl-1H-1,2,3-triazol-4-yl)butyl)-3-methyl-2-((R)-1-methylpiperidine-2-carboxamido)pentanamido)-4-methylpentyl)thiazole-4-carboxamido)-5-(4-aminophenyl)-2,2-dimethylpentanoic acid] | 262 pM | 93.4% | 98.1% | 100% | 37.6 pM | < 15 pM | 98.9% | 99.9% | 1120 pM | 2960 pM | 97.3% | 99.7% | 247 pM | 348 pM | 96.2% | 99.1% | 779 pM | 1270 pM | 97.6% | 109 pM | HCT-15 % Kill (HCT15 cells; without Verapamil): 98.6%; IC50 (HCT15 cells; [10]): 370 pM |
| CCCCCON(C(=O)[C@@H](NC(=O)[C@H]1CCCCN1C)[C@@H](C)CC)[C@H](C[C@@H](OC(=O)NC)c1nc(C(=O)N[C@@H](Cc2ccc(N)cc2)CC(C)(C)C(=O)O)cs1)C(C)C [VIh, (S)-5-(4-Aminophenyl)-4-(2-((5R,7R)-7-isopropyl-8-((2S,3S)-3-methyl-2-((R)-1-methylpiperidine-2-carboxamido)pentanoyl)-3-oxo-4,9-dioxa-2,8-diazatetradecan-5-yl)thiazole-4-carboxamido)-2,2-dimethylpentanoic acid] | 159 pM | 93.9% | 97.6% | 99.9% | 39.1 pM | < 15 pM | 98.5% | 99.8% | 1260 pM | 2720 pM | 97.9% | 99.7% | 366 pM | 515 pM | 96.3% | 99.1% | 1070 pM | 1730 pM | 97.8% | 71.6 pM | HCT-15 % Kill (HCT15 cells; without Verapamil): 99%; IC50 (HCT15 cells; [10]): 263 pM |
| CCCCCCN(C(=O)[C@@H](NC(=O)[C@H]1CCCCN1C)[C@@H](C)CC)[C@H](C[C@@H](OC(C)=O)c1nc(C(=O)NC(Cc2ccc(F)c(NC)c2)CC(C)(C)C(=O)O)cs1)C(C)C (stereo partly drawn) [IVt, 4-(2-((1R,3R)-1-acetoxy-3-((2S,3S)—N-hexyl-3-methyl-2-((R)-1-methylpiperidine-2-carboxamido)pentanamido)-4-methylpentyl)thiazole-4-carboxamido)-5-(4-fluoro-3-(methylamino)phenyl)-2,2-dimethylpentanoic acid] | 110 pM | 94.2% | 98.4% | 100% | < 15 pM | < 15 pM | 99.3% | 100% | 447 pM | 740 pM | 97.6% | 99.8% | 143 pM | 180 pM | 96.3% | 99.3% | 486 pM | 819 pM |  |  |  |
